From ChEMBL document CHEMBL1201862, “PubChem BioAssay data set” (2004)
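Assay format: 96-well plates, 48-hour exposure. Abbreviation: GI50, concentration required for 50% inhibition of growth.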 The source made the active and inactive calls. No stated cut-off is given here; in the data, active = GI50 up to about 1.1 µM and inactive = higher.

Tests used:
Assay in all cases: NCI tumour cell line growth inhibition, 48 h
EKVX = tested on: EKVX
MOLT-4 = tested on: MOLT-4
LOX IMVI = tested on: LOX IMVI
SNB-75 = tested on: SNB-75
SR = tested on: SR
MDA-MB-435 = tested on: MDA-MB-435
PC-3 = tested on: PC-3
NCI-H460 = tested on: NCI-H460
HCT-15 = tested on: HCT-15
A498 = tested on: A498
OVCAR-5 = tested on: OVCAR-5
SN12C = tested on: SN12C
HOP-92 = tested on: HOP-92
786-0 = tested on: 786-0
TK-10 = tested on: TK-10
M14 = tested on: M14
SK-MEL-5 = tested on: SK-MEL-5
MDA-MB-231 = tested on: MDA-MB-231
K562 = tested on: K562
OVCAR-8 = tested on: OVCAR-8

| SMILES | GI50 (EKVX) | GI50 (MOLT-4) | GI50 (LOX IMVI) | GI50 (SNB-75) | GI50 (SR) | GI50 (MDA-MB-435) | GI50 (PC-3) | GI50 (NCI-H460) | GI50 (HCT-15) [µM] | GI50 (A498) | GI50 (OVCAR-5) | GI50 (SN12C) | GI50 (HOP-92) | GI50 (786-0) | GI50 (TK-10) | GI50 (M14) | GI50 (SK-MEL-5) | GI50 (MDA-MB-231) | GI50 (K562) | GI50 (OVCAR-8) |
| --- | --- | --- | --- | --- | --- | --- | --- | --- | --- | --- | --- | --- | --- | --- | --- | --- | --- | --- | --- | --- |
| Cc1[nH]n(-c2ccccc2)c(=O)c1C(N(CCc1ccccc1)C1=NCC(C)S1)(C(F)(F)F)C(F)(F)F (centres undefined) | 11.3 µM (inactive) | 20.5 µM (inactive) | 0.164 µM (active) | 16.5 µM (inactive) | 22.3 µM (inactive) | 10.2 µM (inactive) | 16.1 µM (inactive) | 13.9 µM (inactive) | 13.3 | 11.9 µM (inactive) | 8.65 µM (inactive) | 17.8 µM (inactive) | 0.352 µM (active) | 13.9 µM (inactive) | 16.3 µM (inactive) | 11.6 µM (inactive) | 7.71 µM (inactive) | 18.8 µM (inactive) | 15.2 µM (inactive) | – |
| O=c1[nH]/c(=C/c2ccc(OCc3ccccc3)cn2)c(=O)[nH]/c1=C/c1cccnc1 | 1.65 µM (inactive) | 0.361 µM (active) | 1.95 µM (inactive) | 0.452 µM (active) | 0.5 µM (active) | 0.0845 µM (active) | 0.423 µM (active) | 0.41 µM (active) | 0.254 | 0.209 µM (active) | 1.39 µM (inactive) | 0.417 µM (active) | > 35.2 µM (inactive) | 0.474 µM (active) | 2.18 µM (inactive) | 0.344 µM (active) | 0.226 µM (active) | 1.92 µM (inactive) | 0.318 µM (active) | 1.08 µM (active) |
| O=C1C2=Cc3ccccc3OC2(O)Oc2cc3ccccc3cc21 (centres undefined) | > 100 µM (inactive) | > 100 µM (inactive) | > 100 µM (inactive) | 25.9 µM (inactive) | > 100 µM (inactive) | > 100 µM (inactive) | > 100 µM (inactive) | > 100 µM (inactive) | > 100 | > 100 µM (inactive) | > 100 µM (inactive) | > 100 µM (inactive) | 74.3 µM (inactive) | > 100 µM (inactive) | > 100 µM (inactive) | > 100 µM (inactive) | > 100 µM (inactive) | > 100 µM (inactive) | > 100 µM (inactive) | > 100 µM (inactive) |
| O=C(NCCCN1CCN(CCCNC(=O)c2cc(-c3ccccc3)nc3ccccc23)CC1)c1cc(-c2ccccc2)nc2ccccc12 | 21.5 µM (inactive) | 14 µM (inactive) | 2.86 µM (inactive) | > 38.1 µM (inactive) | 3.37 µM (inactive) | 4.15 µM (inactive) | 9.62 µM (inactive) | 9.2 µM (inactive) | 19.4 | 33.9 µM (inactive) | 29.6 µM (inactive) | 16.3 µM (inactive) | 5.6 µM (inactive) | 7.11 µM (inactive) | 27.3 µM (inactive) | 2.28 µM (inactive) | 2.02 µM (inactive) | 26.1 µM (inactive) | 5.02 µM (inactive) | 12.2 µM (inactive) |
| CCCCCCc1cc2cc(-c3csc(CC#N)n3)c(=O)oc2cc1O | > 100 µM (inactive) | 43.1 µM (inactive) | > 100 µM (inactive) | 32.1 µM (inactive) | > 56.6 µM (inactive) | > 100 µM (inactive) | > 100 µM (inactive) | 8.55 µM (inactive) | > 100 | 56 µM (inactive) | > 100 µM (inactive) | 99.1 µM (inactive) | 7.48 µM (inactive) | 7.62 µM (inactive) | > 100 µM (inactive) | > 100 µM (inactive) | 32.7 µM (inactive) | 11.7 µM (inactive) | > 69.2 µM (inactive) | 13 µM (inactive) |
| COc1ccccc1NC1=NCC(C)S1 (centres undefined) | > 100 µM (inactive) | > 100 µM (inactive) | > 100 µM (inactive) | > 100 µM (inactive) | > 100 µM (inactive) | > 100 µM (inactive) | > 100 µM (inactive) | > 100 µM (inactive) | > 100 | > 100 µM (inactive) | > 100 µM (inactive) | > 100 µM (inactive) | > 100 µM (inactive) | > 100 µM (inactive) | > 100 µM (inactive) | > 100 µM (inactive) | > 100 µM (inactive) | > 100 µM (inactive) | > 100 µM (inactive) | > 100 µM (inactive) |
| OC1(c2ccc(Cl)cc2)c2ccccc2-c2nc3ccccc3n21 (centres undefined) | 84.7 µM (inactive) | > 100 µM (inactive) | > 100 µM (inactive) | > 100 µM (inactive) | 74.5 µM (inactive) | > 100 µM (inactive) | 44.3 µM (inactive) | 65.8 µM (inactive) | > 100 | > 100 µM (inactive) | > 100 µM (inactive) | > 100 µM (inactive) | > 100 µM (inactive) | 49.2 µM (inactive) | > 100 µM (inactive) | > 100 µM (inactive) | > 100 µM (inactive) | > 100 µM (inactive) | > 100 µM (inactive) | 82.8 µM (inactive) |
